Measurements published in patent US8044206B2, “Nitrogen—containing heterocyclic derivatives having 2,6-disubstituted styryl” (Astellas Pharma Inc., priority 2003, dated 2011).
Where a name gives a salt, the structure may show the parent alone.

Legend:
sodium channel = assay: [14C] guanidine uptake induced by veratridine in rat cerebral cortex primary neurons (sodium channel inhibitory action); format: cell-based; conditions: [14C] guanidine uptake induced by 100 μM veratridine, specific uptake = portion inhibited by 1 mM mexiletine, read-out: Na Channel Inhibition IC50
Experimental: The [^14C] guanidine uptake experiment was performed by the method of Bonisch et al. (British Journal of Pharmacology 108, 436-442, 1993) with some modifications. The [^14C] guanidine was used as a sodium tracer, and the inhibitory activity on uptake of [^14C] guanidine induced by veratridine as a sodium channel activator into rat cerebral cortex primary neurons was measured.
Pregnant rats (Wistar, female, 19 days of gestation) were anesthetized with ether. The animals were bled to death by giving incision through the carotid artery. The fetuses were taken out of the pregnant rats and after ethanol sterilization, the cerebral cortex was removed from the fetuses. The cerebral cortex was digested with papain and dispersed in culture medium, followed by plating on a poly-L-lysine-coated 96-well white plate at a density of 2.5×10^5 cells/well. Incubation was performed in a CO2 incubator (37° C., 5% CO2) for 2 days.
After each well was washed once with an assay buffer (135 mM choline Cl, 5 mM KCl, 1 mM MgSO4, 5.5 mM glucose, 1 mg/mL BSA, 10 mM Hepes-Tris, pH 7.4), a fresh assay buffer was added to the well, followed by incubation at 25° C. for 10 minutes. Then, a reaction solution (a test compound, [^14C] guanidine and 100 μM, veratridine) was replaced for the buffer, followed by incubation at 25° C. for 15 minutes. The reaction was terminated by washing 3 times with a cold wash buffer (135 mM NaCl, 5 mM KCl, 1 mM MgSO4, 10 mM Hepes-Tris, pH 7.4). To each well, 17 μl of 0.1N NaOH was added. After agitation, 100 μl of scintillator was added to the well and further agitation was continued. The radioactivity was quantified by a liquid scintillation counter. In each experiment, the sodium channel-specific uptake of the whole uptake was designated as portion that was inhibited by 1 mM mexiletine. The action of the test compound on sodium channel is expressed as 50% inhibition concentration (IC50) based on the specific uptake.

[1] = test system: mice with streptozotocin (STZ)-induced diabetic neuropathy; assay: Analgesic action in mice with streptozotocin (STZ)-induced diabetic neuropathy, tail pinch test; format: in vivo; conditions: male ICR mice, Day 15 after STZ, oral 30 mg/kg, 45 minutes prior to measurement, latency after minus before administration
Experimental: Representative compounds of Compound (I) of the present invention were assessed for the analgesic action in mice with streptozotocin (STZ)-induced diabetic neuropathy to confirm the effect on neuropathic pain. The assessment was performed by the method of Kamei et al. (Pharmacology Biochemistry & Behavior 39, 541-544, 1991) with some modifications.
Male ICR mice of 4 weeks old were intraperitoneally injected with 200 mg/kg weight of STZ to prepare mice with diabetic neuropathic pain. The analgesic action was assessed by the tail pinch test. […] On Day 14 following the STZ injection, a pretest was carried out to determine the response latency before the administration of a test compound. Only the animals showing not longer than 3 seconds of the response latency in the pretest were used for the test compound assessment on the following day (Day 15 after STZ injection).
In the test compound assessment, the response latency after the administration of a test compound was measured. The test compound was orally administered at a dose of 30 mg/kg, 45 minutes prior to the response latency measurement
The analgesic action of a test compound is expressed as prolongation of latency (in seconds) calculated by the formula: (response latency after administration of a test compound)−(response latency before administration of a test compound).

[2] = test system: L5/L6 spinal nerve ligation rats; assay: animal or person; conditions: Rattus norvegicus, po, read-out: anti-allodynia ED50
Experimental: The the assessment was performed by the method of Kim and Chung (Pain 50, 355-363, 1992) with some modifications.
Under pentobarbital anesthesia, male SD rats of 5 or 6 weeks old were given surgery to ligate both the left L5 and L6 lumbar nerves tightly with silk threads. For the assessment of analgesic action, the von Frey hair test was adopted. That is, the animal's hindpaw was picked with hair and the lowest strength of hair for limb withdrawal response was designated as a response threshold (log gram) to mechanical stimulation. […] On the day before the assessment of a test compound, the response threshold before administration of a test compound was measured. The animals were divided into 4 to 5 groups so that differences in the mean values of response thresholds before administration among the groups and variation within groups become small. In the assessment of a test compound, the response threshold after administration of the test compound was measured. The test compound was orally given 30 minutes before measurement of the response threshold. The anti-allodynia action potency of a test compound is expressed as ED50. In the calculation of the ED50, the thresholds of ipsilateral and contralateral paws in the solvent group were designated as 0% and 100%, respectively.

SMILES | IC50 (sodium channel) | Anti-STZ-induced pain after oral administration: Latency prolongation [1] | ED50 [2]
Cc1cccc(C)c1/C=C/C12CCN(CC1)CC2 [Example 24, 4-[(E)-2-(2,6-dimethylphenyl)vinyl]quinuclidine] | 10 µM | 2.6 s | 
Cc1cccc(Cl)c1/C=C/C1CCNCC1 [Example 37, 4-[(E)-2-(2-chloro-6-methylphenyl)vinyl]piperidine hydrochloride] | 10 µM | 1.9 s | 
Cc1cccc(C)c1/C=C\C1CCNCC1 [Example 38, 4-[(Z)-2-(2,6-dimethylphenyl)vinyl]piperidine] | 6 µM | 3.1 s | 
Cc1cccc(C)c1/C=C/C1CCNCC1 [Example 39, 4-[(E)-2-(2,6-dimethylphenyl)vinyl]piperidine monohydrochloride] | 16 µM | 2.9 s | 
Cc1cc(N(C)C)cc(C)c1/C=C/C1CCNCC1 [Example 53, N,N,3,5-tetramethyl-4-[(E)-2-piperidin-4-ylvinyl]aniline] | 19 µM | 4.2 s | 
Cc1cccc(C)c1/C=C/C1CCCCN1 (stereo not shown) [Example 62, 2-[(E)-2-(2,6-dimethylphenyl)vinyl]piperidine monohydrochloride] | 9.2 µM | 2.3 s | 
Cc1cccc(C)c1/C=C/C1CCCNCC1 (stereo not shown) [Example 63, 4-[(E)-2-(2,6-dimethylphenyl)vinyl]azepane] | 10 µM | 3.3 s | 
Cc1cccc(C)c1/C=C/CC1CCNCC1 [Example 65, 4-[(2E)-3-(2,6-dimethylphenyl)prop-2-en-1-yl]piperidine] | 11 µM | 2.3 s | 
Cc1cccc(C)c1/C=C/C1CCCN(C)C1 (stereo not shown) [Example 71, 3-[(E)-2-(2,6-dimethylphenyl)vinyl]-1-methylpiperidine] | 7.7 µM | 2.3 s | 
Cc1cccc(C)c1/C=C/C1CCN(CCN(C)C)CC1 [Example 74, (2-{4-[(E)-2-(2,6-dimethylphenyl)vinyl]piperidin-1-yl}ethyl)dimethylamine] | 7.2 µM | 1.8 s | 
Cc1cccc(C)c1/C=C/C1CCN(C(=O)CN2CCNCC2)CC1 [Example 204, 1-(2-{4-[(E)-2-(2,6-dimethylphenyl)vinyl]piperidin-1-yl}-2-oxoethyl)piperazine] |  | 2.4 s | 
Cc1cccc(C)c1/C=C/C1CCN(C(=O)CN2C[C@H]3C[C@@H]2CN3)CC1 [Example 205, (1R,4R)-2-(2-{4-[(E)-2-(2,6-dimethylphenyl)vinyl]piperidin-1-yl}-2-oxoethyl)-2,5-diazabicyclo[2.2.1]heptane] |  | 1.6 s | 
Cc1cccc(C)c1OCC(C)N (stereo not shown) [Mexiletine, reference compound] | 70 µM | about 3 seconds | ~70 mg/kg
